Tests used:
Abutilon theophrasti [1] = experiment: Post-emergence herbicidal action; assay type: in vivo; conditions: about 3 weeks after treatment; for pest or weed control at 1280 g/ha: Abutilon theophrasti, 504 h, read-out: Abutilon theophrasti, herbicidal activity rated visually
Experimental: (§1) Seeds of monocotyledonous and dicotyledonous weeds and crop plants were placed in sandy loam in plastic or wood-fiber pots, covered with soil and cultivated in a greenhouse under controlled growth conditions. 2 to 3 weeks after sowing, the test plants were treated at the one-leaf stage. The compounds of the invention, formulated in the form of wettable powders (WP) or as emulsion concentrates (EC), were then sprayed onto the green parts of the plants as aqueous suspension or emulsion with addition of 0.5% additive at a water application rate of 600 l/ha (converted). After the test plants had been kept in the greenhouse under optimum growth conditions for about 3 weeks, the activity of the preparations was rated visually in comparison to untreated controls. For example, 100% activity=the plants have died, 0% activity=like control plants. Tables A1 to A12 below show the effects of selected compounds of the general formula (I) according to Tables I.1 to I.44 on various harmful plants and an application rate corresponding to 1280 g/ha or 320 g/ha, which were obtained by the experimental procedure mentioned above.

Alopecurus myosuroides [2] = experiment: Post-emergence herbicidal action; assay type: in vivo; conditions: 1280 g/ha, about 3 weeks after treatment
Experimental: as §1

Amaranthus retroflexus [3] = experiment: Post-emergence herbicidal action; assay type: in vivo; conditions: 1280 g/ha, about 3 weeks after treatment
Experimental: as §1

Matricaria inodora [4] = experiment: Post-emergence herbicidal action; assay type: in vivo; conditions: 1280 g/ha, about 3 weeks after treatment
Experimental: as §1

Pharbitis purpurea [5] = experiment: Post-emergence herbicidal action; assay type: in vivo; conditions: 1280 g/ha, about 3 weeks after treatment
Experimental: as §1

Stellaria media [6] = experiment: Post-emergence herbicidal action; assay type: in vivo; conditions: 1280 g/ha, about 3 weeks after treatment; for pest or weed control at 1280 g/ha: Stellaria media, 504 h, read-out: Stellaria media, herbicidal activity rated visually
Experimental: as §1

Veronica persica = experiment: Post-emergence herbicidal action; assay type: in vivo; conditions: 1280 g/ha, about 3 weeks after treatment
Experimental: as §1

Viola tricolor [7] = experiment: Post-emergence herbicidal action; assay type: in vivo; conditions: 504 h, 1280 g/ha, about 3 weeks after treatment, read-out: Viola tricolor, herbicidal activity rated visually
Experimental: as §1

Abutilon theophrasti [8] = experiment: Pre-emergence herbicidal action; assay type: in vivo; conditions: 1280 g/ha, after about 3 weeks
From the text: (§2) Seeds of monocotyledonous and dicotyledonous weed plants and crop plants were placed in plastic or organic planting pots and covered with soil. The compounds of the invention, formulated in the form of wettable powders (WP) or as emulsion concentrates (EC), were then applied onto the surface of the covering soil as aqueous suspension or emulsion with addition of 0.5% additive at a water application rate of 600 l/ha (converted). After the treatment, the pots were placed in a greenhouse and kept under good growth conditions for the test plants. After about 3 weeks, the effect of the preparations was scored visually in comparison with untreated controls as percentages. For example, 100% activity=the plants have died, 0% activity=like control plants. Tables B1 to B15 below show the effects of selected compounds of the general formula (I) according to Tables I.1 to I.44 on various harmful plants and an application rate corresponding to 1280 g/ha or 320 g/ha, which were obtained by the experimental procedure mentioned above.

Alopecurus myosuroides [9] = experiment: Pre-emergence herbicidal action; assay type: in vivo; conditions: 1280 g/ha, after about 3 weeks
From the text: as §2

Lolium rigidum = experiment: Pre-emergence herbicidal action; assay type: in vivo; conditions: 1280 g/ha, after about 3 weeks
From the text: as §2

Matricaria inodora [10] = experiment: Pre-emergence herbicidal action; assay type: in vivo; conditions: 1280 g/ha, after about 3 weeks; for pest or weed control at 1280 g/ha: Tripleurospermum inodorum, 504 h, read-out: Matricaria inodora, herbicidal effect scored visually
From the text: as §2

Pharbitis purpurea [11] = experiment: Pre-emergence herbicidal action; assay type: in vivo; conditions: 1280 g/ha, after about 3 weeks
From the text: as §2

Polygonum convolvulus = experiment: Pre-emergence herbicidal action; assay type: in vivo; conditions: 1280 g/ha, after about 3 weeks
From the text: as §2

Setaria viridis [12] = experiment: Pre-emergence herbicidal action; assay type: in vivo; conditions: 1280 g/ha, after about 3 weeks; for pest or weed control at 1280 g/ha: Setaria viridis, 504 h, read-out: Setaria viridis, herbicidal effect scored visually
From the text: as §2

Stellaria media [13] = experiment: Pre-emergence herbicidal action; assay type: in vivo; conditions: after about 3 weeks; for pest or weed control at 1280 g/ha: Stellaria media, 504 h, read-out: Stellaria media, herbicidal effect scored visually
From the text: as §2

Viola tricolor [14] = experiment: Pre-emergence herbicidal action; assay type: in vivo; conditions: Viola tricolor, 504 h, 1280 g/ha, after about 3 weeks, read-out: Viola tricolor, herbicidal effect scored visually
From the text: as §2

photosystem II (PS II) = molecular target: T1, photosystem II (PS II) (Spinacia oleracea, UniProt P69560); experiment: Measurement of the PS II activity in thylakoid membranes (DCPIP reduction); assay type: biochemical; conditions: 100 μM test compound, spinach thylakoid membranes, DCPIP 120 μM, 10 min at 22° C. with exposure to light; for inhibition at 100 µM (stock): read-out: Effect (inhibition of PS II activity)
T1 construct: the chloroplasts were osmotically ruptured and the thylakoid membranes were then obtained by centrifugation; from tissue; host or cells: fresh spinach leaves; thylakoid membranes isolated from chloroplasts
Experimental: Cooled fresh spinach leaves were comminuted and homogenized in 50 mM phosphate buffer, pH 6.8. 10 mM KCl, 0.34 M sucrose (sucrose buffer) (blender, 1 g of plant material/ml). The homogenate was subsequently filtered through 4 layers of Miracloth and the chloroplasts were isolated by centrifugation, i.e. 10 min of centrifugation at 4400×g (4° C.). The sediment was suspended in 25 ml of sucrose buffer and re-centrifuged for 10 min at 4400×g (4° C.). The sediment was then suspended in 40 ml of 50 mM phosphate buffer, pH 6.8, 10 mM KCl, without sucrose. In this step, the chloroplasts were osmotically ruptured and the thylakoid membranes were then obtained by centrifugation (10 min, 4400×g, 4° C.). The membrane sediment was finally suspended in 20 ml of 50 mM phosphate buffer, pH 6.8, 10 mM KCl. Following protein determination and activity determination, the membrane suspension was divided into aliquots and frozen in liquid nitrogen. The aliquots were stored at −80° C. Under these conditions, the photosystem II preparation was storage stable for at least three months. The activity determination of photosystem II (PS II) was then carried out using the following test principle:
The electron transfer from PS II to an artificial electron acceptor, 2,6-dichlorophenolindophenol (DCPIP), was measured with exposure to light. The concentration of the blue oxidized form of DCPIP was determined spectrophotometrically at wavelength λ=595 nm. […] The activity determination was carried out in microtiter plates (96 cavities) in a reaction volume of 200 μl. Here, 155 μl of dilute membrane suspension were initially charged in 50 mM of phosphate buffer, pH 6.8, 10 mM KCl. Depending on the activity of the PS II preparation, the dilution was adjusted such that the measurement of the decrease in absorption (λ=595 nm) was linear for at least 10 min. In each case 5 μl solution of the test compounds of a concentration of 100 μM in DMSO were added to the enzyme suspension; controls contained 5 μl DMSO; the final concentration of DMSO in the reaction batch was thus 2.5% (v/v); this concentration had no adverse effect on the enzymatic activity. On each microtiter plate, a known PS II inhibitor, for example metribuzin, was used as standard, which allowed the quality of the PS II test to be assessed. The reaction was started by addition of 40 μl DCPIP solution (600 μM in distilled water); the final concentration of DCPIP was 120 μM. Measurement of absorption was carried out over a period of 10 min at 22° C. and with exposure to light. Using metribuzin as comparative substance, the results for the efficacy of the compounds of the general formula (I) at 100 μM are stated in the table below using the following classification: ++++ (inhibition≥90%), +++ ([…]≥70%), ++ (70%>inhibition≥50%), + (50%>inhibition≥30%).

Hordeum murinum = experiment: Post-emergence herbicidal action; assay type: in vivo; conditions: 1280 g/ha, about 3 weeks after treatment
Experimental: as §1

Setaria viridis [15] = experiment: Post-emergence herbicidal action; assay type: in vivo; conditions: Setaria viridis, 504 h, 1280 g/ha, about 3 weeks after treatment, read-out: Setaria viridis, herbicidal activity rated visually
Experimental: as §1

Amaranthus retroflexus [16] = experiment: Pre-emergence herbicidal action; assay type: in vivo; conditions: 1280 g/ha, after about 3 weeks
From the text: as §2

Poa annua = experiment: Pre-emergence herbicidal action; assay type: in vivo; conditions: 1280 g/ha, after about 3 weeks
From the text: as §2

With `CC1=C(Cl)C(=O)N(c2nc(C3CC3)ns2)C1O` (centres unmarked) [I.3-11, 3-Chloro-4-methyl-5-hydroxy-1-(3-cyclopropyl-1,2,4-thiadiazol-5-yl)-1,5-dihydro-2H-pyrrol-2-one] the pest or weed control at 1280 g/ha (Abutilon theophrasti [1]) was 100%, the “Alopecurus myosuroides, herbicidal activity rated visually” value (Alopecurus myosuroides [2]) was 80% and the “Amaranthus retroflexus, herbicidal activity rated visually” value (Amaranthus retroflexus [3]) was 100%. The “Matricaria inodora, herbicidal activity rated visually” value (Matricaria inodora [4]) was 90%, the “Pharbitis purpurea, herbicidal activity rated visually” value (Pharbitis purpurea [5]) was 100% and the pest or weed control at 1280 g/ha (Stellaria media [6]) was 100%. The “Veronica persica, herbicidal activity rated visually” value (Veronica persica) was 80%, the pest or weed control at 1280 g/ha (Viola tricolor [7]) was 100% and the “Abutilon theophrasti, herbicidal effect scored visually” value (Abutilon theophrasti [8]) was 80%. The “Alopecurus myosuroides, herbicidal effect scored visually” value (Alopecurus myosuroides [9]) was 100%, the “Lolium rigidum, herbicidal effect scored visually” value (Lolium rigidum) was 80% and the pest or weed control at 1280 g/ha (Matricaria inodora [10]) was 100%. For the same molecule, the “Pharbitis purpurea, herbicidal effect scored visually” value (Pharbitis purpurea [11]) was 100%, the “Polygonum convolvulus, herbicidal effect scored visually” value (Polygonum convolvulus) was 80% and the pest or weed control at 1280 g/ha (Setaria viridis [12]) was 90%. For the same molecule, the pest or weed control at 1280 g/ha (Stellaria media [13]) was 100%, the pest or weed control at 1280 g/ha (Viola tricolor [14]) was 100% and the inhibition at 100 µM (stock) (photosystem II (PS II)) was over 90%.
With `CCCc1nsc(N2C(=O)C(C)=C(C)C2O)n1` (centres unmarked) [I.2-4, 3,4-Dimethyl-5-hydroxy-1-[3-(n-propyl)-1,2,4-thiadiazol-5-yl)-1,5-dihydro-2H-pyrrol-2-one] the pest or weed control at 1280 g/ha (Abutilon theophrasti [1]) was 90%, the “Hordeum murinum, herbicidal activity rated visually” value (Hordeum murinum) was 80% and the “Pharbitis purpurea, herbicidal activity rated visually” value (Pharbitis purpurea [5]) was 90%. The pest or weed control at 1280 g/ha (Setaria viridis [15]) was 100%, the pest or weed control at 1280 g/ha (Stellaria media [6]) was 80% and the pest or weed control at 1280 g/ha (Viola tricolor [7]) was 80%. The “Abutilon theophrasti, herbicidal effect scored visually” value (Abutilon theophrasti [8]) was 80%, the “Alopecurus myosuroides, herbicidal effect scored visually” value (Alopecurus myosuroides [9]) was 90% and the pest or weed control at 1280 g/ha (Matricaria inodora [10]) was 100%. The “Polygonum convolvulus, herbicidal effect scored visually” value (Polygonum convolvulus) was 100%, the pest or weed control at 1280 g/ha (Setaria viridis [12]) was 100% and the pest or weed control at 1280 g/ha (Stellaria media [13]) was 100%. The pest or weed control at 1280 g/ha (Viola tricolor [14]) was 100% and the inhibition at 100 µM (stock) (photosystem II (PS II)) was over 90%.
For `CC1=C(C)C(O)N(c2nc(SCCOC(F)(F)F)ns2)C1=O` (centres unmarked) [I.2-338], the “Abutilon theophrasti, herbicidal activity rated visually” value (Abutilon theophrasti [1]; 320 g/ha) was 100%, the “Stellaria media, herbicidal activity rated visually” value (Stellaria media [6]) was 90% and the “Amaranthus retroflexus, herbicidal effect scored visually” value (Amaranthus retroflexus [16]) was 90%. For the same molecule, the “Lolium rigidum, herbicidal effect scored visually” value (Lolium rigidum) was 90%, the “Matricaria inodora, herbicidal effect scored visually” value (Matricaria inodora [10]) was 90% and the “Poa annua, herbicidal effect scored visually” value (Poa annua) was 90%. The “Setaria viridis, herbicidal effect scored visually” value (Setaria viridis [12]) was 90%, the “Stellaria media, herbicidal effect scored visually” value (Stellaria media [13]; 320 g/ha) was 90% and the “Effect (inhibition of PS II activity)” value (photosystem II (PS II)) was “++++ (inhibition≥90%)”.

Reference: patent US20200095241A1, “SUBSTITUTED 1,2,4-THIADIAZOLYLPYRROLONES AND 1,2,4-THIADIAZOLYLHYDANTOINS AND SALTS THEREOF AND USE THEREOF AS HERBICIDES” (Bayer CropScience Aktiengesellschaft, priority 2016, published 2020)
